Assay results from ChEMBL document CHEMBL1201862, “PubChem BioAssay data set” (2004).
The source made the active and inactive calls.

Experiments:
[1] = target: Protein kinase C theta type (Homo sapiens, UniProt Q04759); assay: Navigating the Kinome. Panel member name: PRKCQ; type: functional
[2] = target: Ribosomal protein S6 kinase alpha-3 (Homo sapiens, UniProt P51812); type: functional;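 further: measured within a kinome-wide profiling panel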
[3] = target: Dual specificity protein kinase CLK2 (Homo sapiens, UniProt P49760); type: functional
[4] = target: Dual specificity mitogen-activated protein kinase kinase 1 (Homo sapiens, UniProt Q02750); assay: Navigating the Kinome. Panel member name: MAP2K1; type: functional
[5] = target: Tyrosine-protein kinase JAK2 (Homo sapiens, UniProt O60674); type: functional;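 further: JAK2 tested as one member of a kinase panel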
[6] = target: Serine/threonine-protein kinase TBK1 (Homo sapiens, UniProt Q9UHD2); assay: Navigating the Kinome. Panel member name: TBK1; type: functional
[7] = target: 5'-AMP-activated protein kinase catalytic subunit alpha-1 (Homo sapiens, UniProt Q13131); type: functional
[8] = target: ALK tyrosine kinase receptor (Homo sapiens, UniProt Q9UM73); type: functional;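 further: ALK tested as one member of a kinase panel screen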
[9] = target: Proto-oncogene tyrosine-protein kinase receptor Ret (Homo sapiens, UniProt P07949); type: functional;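 further: measured within a kinome-wide profiling panel, RET as the panel member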
[10] = target: Tyrosine-protein kinase receptor TYRO3 (Homo sapiens, UniProt Q06418); type: functional;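 further: TYRO3 value obtained as one member of a kinome-wide profiling panel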
[11] = target: Serine/threonine-protein kinase D3 (Homo sapiens, UniProt O94806); type: functional;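 further: determined within a kinase panel screen, with PRKCN as the panel member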
[12] = target: Tyrosine-protein kinase Lck (Homo sapiens, UniProt P06239); type: functional;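 further: lck was assayed as one member of a kinase panel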
[13] = target: Death-associated protein kinase 3 (Homo sapiens, UniProt O43293); type: functional;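 further: measured as one member of a kinome-wide profiling panel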
Activin receptor type-1 = Activin receptor type-1 (Homo sapiens, UniProt Q04771); assay: Navigating the Kinome. Panel member name: ACVR1; type: functional
[14] = target: Mitogen-activated protein kinase 8 (Homo sapiens, UniProt P45983); type: functional;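 further: value comes from one member of a kinome-wide kinase profiling panel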
[15] = target: Serine/threonine-protein kinase pim-1 (Homo sapiens, UniProt P11309); type: functional
Aurora kinase A = Aurora kinase A (Homo sapiens, UniProt O14965); type: functional;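 further: value from the Navigating the Kinome kinase panel profiling, panel entry STK6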
[16] = target: Tyrosine-protein kinase BTK (Homo sapiens, UniProt Q06187); type: functional
[17] = target: Serine/threonine-protein kinase PAK 4 (Homo sapiens, UniProt O96013); type: functional;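 further: value obtained within a kinome profiling panel in which PAK4 was one of the panel members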
[18] = target: Fibroblast growth factor receptor 1 (Homo sapiens, UniProt P11362); type: functional
[19] = target: Tyrosine-protein kinase JAK3 (Homo sapiens, UniProt P52333); type: functional
[20] = target: Mitogen-activated protein kinase 9 (Homo sapiens, UniProt P45984); type: functional;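 further: value from a kinome panel profiling assay, MAPK9 panel entry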
[21] = target: Serine/threonine-protein kinase N2 (Homo sapiens, UniProt Q16513); type: functional
[22] = target: Serine/threonine-protein kinase TAO1 (Homo sapiens, UniProt Q7L7X3); type: functional
[23] = target: T1, Glycogen synthase kinase-3 alpha (Homo sapiens, UniProt P49840); type: functional;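 further: GSK3A result taken from a broad kinome-wide kinase panel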
[24] = target: Mitogen-activated protein kinase kinase kinase kinase 2 (Homo sapiens, UniProt Q12851); type: functional;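 further: measured as one member of a kinome-wide kinase panel, with MAP4K2 as the panel entry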
Activated CDC42 kinase 1 = Activated CDC42 kinase 1 (Homo sapiens, UniProt Q07912); assay: Navigating the Kinome. Panel member name: ACK1; type: functional
[25] = target: Receptor-type tyrosine-protein kinase FLT3 (Homo sapiens, UniProt P36888); type: functional;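 further: FLT3 was tested as one member of a kinome-wide kinase panel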
[26] = target: Tyrosine-protein kinase ABL1 (Homo sapiens, UniProt P00519); type: functional
[27] = target: Vascular endothelial growth factor receptor 2 (Homo sapiens, UniProt P35968); type: functional
[28] = target: G protein-coupled receptor kinase 5 (Homo sapiens, UniProt P34947); assay: Navigating the Kinome. Panel member name: GPRK5; type: functional
[29] = target: Cyclin-dependent kinase 5 (Homo sapiens, UniProt Q00535); type: functional;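 further: CDK5 measured as one member of a kinase profiling panel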
[30] = target: Insulin-like growth factor 1 receptor (Homo sapiens, UniProt P08069); assay: Navigating the Kinome. Panel member name: IGF1R; type: functional
[31] = target: Dual specificity tyrosine-phosphorylation-regulated kinase 1B (Homo sapiens, UniProt Q9Y463); assay: Navigating the Kinome. Panel member name: DYRK1B; type: functional
[32] = target: cAMP-dependent protein kinase catalytic subunit PRKX (Homo sapiens, UniProt P51817); type: functional
[33] = target: Platelet-derived growth factor receptor alpha (Homo sapiens, UniProt P16234); assay: Navigating the Kinome. Panel member name: PDGFRA; type: functional
[34] = target: Leucine-rich repeat serine/threonine-protein kinase 2 (Homo sapiens, UniProt Q5S007); type: functional;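 further: value from a broad kinome-wide panel profiling study in which LRRK2 was one of the kinases tested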
[35] = target: Rho-associated protein kinase 1 (Homo sapiens, UniProt Q13464); type: functional;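 further: measured within a broad kinome-wide panel profiling many kinases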
[36] = target: Tyrosine-protein kinase Fyn (Homo sapiens, UniProt P06241); type: functional
[37] = target: Cyclin-dependent kinase 8 (Homo sapiens, UniProt P49336); assay: Navigating the Kinome. Panel member name: CDK8; type: functional
[38] = target: Cyclin-dependent kinase 7 (Homo sapiens, UniProt P50613); type: functional;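 further: value comes from a kinome-wide kinase profiling panel in which CDK7 is one member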
[39] = target: Vascular endothelial growth factor receptor 1 (Homo sapiens, UniProt P17948); type: functional;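 further: measured within a kinome-wide profiling panel, FLT1 as the panel member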
[40] = target: T2, Glycogen synthase kinase-3 beta (Homo sapiens, UniProt P49841); type: functional;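 further: value comes from a broad kinome profiling panel, with GSK3B as the panel member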
[41] = target: Cyclin-dependent kinase 9 (Homo sapiens, UniProt P50750); type: functional;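 further: value from the CDK9 entry of a kinome-spanning kinase panel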
[42] = target: BDNF/NT-3 growth factors receptor (Homo sapiens, UniProt Q16620); type: functional;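 further: NTRK2 measured as one member of a broad kinome-wide kinase profiling panel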
[43] = target: cAMP-dependent protein kinase catalytic subunit alpha (Homo sapiens, UniProt P17612); type: functional
[44] = target: Dual specificity protein kinase CLK4 (Homo sapiens, UniProt Q9HAZ1); type: functional
[45] = target: Mitogen-activated protein kinase kinase kinase kinase 4 (Homo sapiens, UniProt O95819); type: functional
[46] = target: Macrophage-stimulating protein receptor (Homo sapiens, UniProt Q04912); assay: Navigating the Kinome. Panel member name: MST1R; type: functional
[47] = target: Macrophage colony-stimulating factor 1 receptor (Homo sapiens, UniProt P07333); type: functional;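 further: value comes from the Navigating the Kinome screening panel, CSF1R member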
[48] = target: Dual specificity mitogen-activated protein kinase kinase 2 (Homo sapiens, UniProt P36507); assay: Navigating the Kinome. Panel member name: MAP2K2; type: functional
[49] = target: Dual specificity tyrosine-phosphorylation-regulated kinase 1A (Homo sapiens, UniProt Q13627); type: functional;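 further: measured against DYRK1A as one member of a broad kinome profiling panel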
[50] = target: Inhibitor of nuclear factor kappa-B kinase subunit epsilon (Homo sapiens, UniProt Q14164); assay: Navigating the Kinome. Panel member name: IKBKE; type: functional
[51] = target: Calcium/calmodulin-dependent protein kinase type II subunit alpha (Homo sapiens, UniProt Q9UQM7); assay: Navigating the Kinome. Panel member name: CAMK2A; type: functional
[52] = target: Leukocyte tyrosine kinase receptor (Homo sapiens, UniProt P29376); assay: Navigating the Kinome. Panel member name: LTK; type: functional
[53] = target: Mitogen-activated protein kinase 14 (Homo sapiens, UniProt Q16539); type: functional;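 further: part of a kinome-wide panel, MAPK14 entry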
[54] = target: FAD-linked sulfhydryl oxidase ALR (Homo sapiens, UniProt P55789); assay: inhibitors of human ALR sulfhydryl oxidase, dose response, biochemical, H2O2 detection, luminescence, cherry-pick (AID 493248)
[55] = target: T2, Glycogen synthase kinase-3 beta; assay: GSK3beta kinase inhibitors, dose response, biochemical, microfluidics, dry powder samples, set 2 (AID 623989); type: functional
[56] = target: T1, Glycogen synthase kinase-3 alpha; assay: human GSK3 alpha kinase inhibition, dose response, selectivity assay for GSK3beta inhibitor project, biochemical, microfluidics, dry powder samples, set 2 (AID 623978); type: functional
[57] = target: Cyclin-dependent kinase 5/CDK5 activator 1 (Homo sapiens, UniProt Q00535); assay: CDK5-p25 kinase inhibition, dose response, selectivity assay for GSK3beta inhibitor project, biochemical, microfluidic mobility shift, dry powder, set 2 (AID 623979); type: functional

T2 sequence (P49841 whole entry): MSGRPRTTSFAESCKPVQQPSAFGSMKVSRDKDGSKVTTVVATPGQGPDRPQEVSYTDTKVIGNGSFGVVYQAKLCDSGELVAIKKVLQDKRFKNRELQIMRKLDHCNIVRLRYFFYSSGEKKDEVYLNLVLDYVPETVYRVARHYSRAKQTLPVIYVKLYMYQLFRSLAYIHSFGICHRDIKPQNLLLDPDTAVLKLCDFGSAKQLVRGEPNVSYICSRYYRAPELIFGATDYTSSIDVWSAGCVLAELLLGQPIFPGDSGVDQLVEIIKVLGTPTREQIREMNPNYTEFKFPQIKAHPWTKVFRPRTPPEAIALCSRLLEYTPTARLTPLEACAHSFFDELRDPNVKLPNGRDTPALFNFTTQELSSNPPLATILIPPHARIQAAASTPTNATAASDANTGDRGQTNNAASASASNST
T1 sequence (P49840 whole entry): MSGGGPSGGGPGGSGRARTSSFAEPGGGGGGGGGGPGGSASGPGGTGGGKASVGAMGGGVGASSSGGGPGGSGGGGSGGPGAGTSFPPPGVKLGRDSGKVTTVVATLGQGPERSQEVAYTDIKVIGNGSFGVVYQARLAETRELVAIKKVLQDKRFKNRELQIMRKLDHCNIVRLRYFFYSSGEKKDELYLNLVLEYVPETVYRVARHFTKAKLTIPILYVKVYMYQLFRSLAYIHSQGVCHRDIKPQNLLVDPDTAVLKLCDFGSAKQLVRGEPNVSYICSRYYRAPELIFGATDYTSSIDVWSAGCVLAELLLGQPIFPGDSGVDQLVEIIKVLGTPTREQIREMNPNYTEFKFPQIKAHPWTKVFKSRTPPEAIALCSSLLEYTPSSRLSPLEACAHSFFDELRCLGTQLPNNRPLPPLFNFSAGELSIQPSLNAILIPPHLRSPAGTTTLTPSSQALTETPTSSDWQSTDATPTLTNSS
Dual specificity mitogen-activated protein kinase kinase 1, sequence (Q02750 whole entry): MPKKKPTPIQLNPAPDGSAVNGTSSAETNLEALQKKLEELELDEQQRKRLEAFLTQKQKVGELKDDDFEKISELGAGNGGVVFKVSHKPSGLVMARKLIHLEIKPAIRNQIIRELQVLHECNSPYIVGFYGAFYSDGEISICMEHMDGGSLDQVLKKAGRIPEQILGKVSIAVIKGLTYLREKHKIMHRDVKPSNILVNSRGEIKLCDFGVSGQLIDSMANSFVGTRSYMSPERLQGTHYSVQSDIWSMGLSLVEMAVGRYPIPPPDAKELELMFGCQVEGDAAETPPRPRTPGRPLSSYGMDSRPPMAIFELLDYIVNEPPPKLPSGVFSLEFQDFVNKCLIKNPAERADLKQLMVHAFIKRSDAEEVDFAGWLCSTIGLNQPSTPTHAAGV
Leucine-rich repeat serine/threonine-protein kinase 2, sequence (Q5S007 whole entry): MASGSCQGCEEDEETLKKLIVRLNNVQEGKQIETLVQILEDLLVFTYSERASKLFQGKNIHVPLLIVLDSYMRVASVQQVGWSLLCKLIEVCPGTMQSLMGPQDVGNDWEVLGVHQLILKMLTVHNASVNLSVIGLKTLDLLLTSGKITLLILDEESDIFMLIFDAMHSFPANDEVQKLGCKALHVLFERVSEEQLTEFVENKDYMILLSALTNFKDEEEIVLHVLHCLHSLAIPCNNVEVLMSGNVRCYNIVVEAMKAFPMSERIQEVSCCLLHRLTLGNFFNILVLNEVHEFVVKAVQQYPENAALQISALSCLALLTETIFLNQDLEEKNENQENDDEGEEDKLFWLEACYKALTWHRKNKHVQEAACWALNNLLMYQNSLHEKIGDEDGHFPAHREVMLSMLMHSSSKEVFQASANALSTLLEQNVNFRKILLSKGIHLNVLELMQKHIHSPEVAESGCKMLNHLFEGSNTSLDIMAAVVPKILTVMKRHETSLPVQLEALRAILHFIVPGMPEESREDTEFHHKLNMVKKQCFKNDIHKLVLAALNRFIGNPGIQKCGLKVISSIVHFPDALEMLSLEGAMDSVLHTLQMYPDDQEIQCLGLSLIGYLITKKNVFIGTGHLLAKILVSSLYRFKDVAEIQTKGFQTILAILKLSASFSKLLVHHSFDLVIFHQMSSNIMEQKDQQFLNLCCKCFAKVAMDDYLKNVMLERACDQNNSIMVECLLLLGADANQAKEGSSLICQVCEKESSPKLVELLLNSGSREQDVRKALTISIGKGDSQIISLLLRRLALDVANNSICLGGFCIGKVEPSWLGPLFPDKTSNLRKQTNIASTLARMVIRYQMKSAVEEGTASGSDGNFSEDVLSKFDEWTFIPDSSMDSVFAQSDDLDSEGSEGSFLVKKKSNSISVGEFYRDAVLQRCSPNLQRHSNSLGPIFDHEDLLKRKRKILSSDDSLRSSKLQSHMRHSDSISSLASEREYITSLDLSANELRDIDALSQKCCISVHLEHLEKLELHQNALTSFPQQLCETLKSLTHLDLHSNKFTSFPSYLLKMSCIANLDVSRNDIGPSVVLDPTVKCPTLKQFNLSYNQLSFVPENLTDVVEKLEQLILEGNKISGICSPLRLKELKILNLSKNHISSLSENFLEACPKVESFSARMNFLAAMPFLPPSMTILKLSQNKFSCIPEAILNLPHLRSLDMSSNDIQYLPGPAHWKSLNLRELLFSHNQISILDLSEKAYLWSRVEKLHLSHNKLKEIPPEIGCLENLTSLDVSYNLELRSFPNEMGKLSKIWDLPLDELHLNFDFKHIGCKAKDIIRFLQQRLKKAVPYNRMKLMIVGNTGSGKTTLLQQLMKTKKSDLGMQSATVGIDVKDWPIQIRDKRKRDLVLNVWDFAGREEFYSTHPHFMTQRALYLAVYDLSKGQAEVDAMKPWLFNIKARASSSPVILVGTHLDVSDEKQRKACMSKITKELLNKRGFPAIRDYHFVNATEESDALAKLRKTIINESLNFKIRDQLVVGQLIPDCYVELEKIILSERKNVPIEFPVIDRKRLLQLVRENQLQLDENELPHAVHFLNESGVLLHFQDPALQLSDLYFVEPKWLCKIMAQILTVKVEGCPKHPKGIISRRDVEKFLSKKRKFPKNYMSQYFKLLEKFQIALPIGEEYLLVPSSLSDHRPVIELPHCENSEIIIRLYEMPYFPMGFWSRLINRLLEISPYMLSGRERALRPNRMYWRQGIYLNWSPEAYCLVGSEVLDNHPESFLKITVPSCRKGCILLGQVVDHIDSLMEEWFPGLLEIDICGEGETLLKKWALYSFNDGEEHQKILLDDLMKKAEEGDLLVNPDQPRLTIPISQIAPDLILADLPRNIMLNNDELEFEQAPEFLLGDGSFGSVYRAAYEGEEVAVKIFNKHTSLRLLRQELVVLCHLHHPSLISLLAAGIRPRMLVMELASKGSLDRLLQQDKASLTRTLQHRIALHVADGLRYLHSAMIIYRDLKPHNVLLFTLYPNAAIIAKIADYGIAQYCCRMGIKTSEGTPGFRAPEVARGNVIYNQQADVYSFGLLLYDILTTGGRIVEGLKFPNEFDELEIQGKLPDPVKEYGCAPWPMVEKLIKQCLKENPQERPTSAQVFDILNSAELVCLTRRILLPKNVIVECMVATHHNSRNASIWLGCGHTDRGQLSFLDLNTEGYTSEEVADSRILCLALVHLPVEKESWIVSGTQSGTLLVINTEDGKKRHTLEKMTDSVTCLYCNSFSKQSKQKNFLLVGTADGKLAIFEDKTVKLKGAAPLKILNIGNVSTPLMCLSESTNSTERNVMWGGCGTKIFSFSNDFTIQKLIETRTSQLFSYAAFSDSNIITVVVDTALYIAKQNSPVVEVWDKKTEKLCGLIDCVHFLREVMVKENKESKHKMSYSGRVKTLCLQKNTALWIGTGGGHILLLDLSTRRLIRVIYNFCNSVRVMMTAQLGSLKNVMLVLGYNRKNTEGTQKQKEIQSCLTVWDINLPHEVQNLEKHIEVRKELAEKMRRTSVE
Platelet-derived growth factor receptor alpha, sequence (P16234 whole entry): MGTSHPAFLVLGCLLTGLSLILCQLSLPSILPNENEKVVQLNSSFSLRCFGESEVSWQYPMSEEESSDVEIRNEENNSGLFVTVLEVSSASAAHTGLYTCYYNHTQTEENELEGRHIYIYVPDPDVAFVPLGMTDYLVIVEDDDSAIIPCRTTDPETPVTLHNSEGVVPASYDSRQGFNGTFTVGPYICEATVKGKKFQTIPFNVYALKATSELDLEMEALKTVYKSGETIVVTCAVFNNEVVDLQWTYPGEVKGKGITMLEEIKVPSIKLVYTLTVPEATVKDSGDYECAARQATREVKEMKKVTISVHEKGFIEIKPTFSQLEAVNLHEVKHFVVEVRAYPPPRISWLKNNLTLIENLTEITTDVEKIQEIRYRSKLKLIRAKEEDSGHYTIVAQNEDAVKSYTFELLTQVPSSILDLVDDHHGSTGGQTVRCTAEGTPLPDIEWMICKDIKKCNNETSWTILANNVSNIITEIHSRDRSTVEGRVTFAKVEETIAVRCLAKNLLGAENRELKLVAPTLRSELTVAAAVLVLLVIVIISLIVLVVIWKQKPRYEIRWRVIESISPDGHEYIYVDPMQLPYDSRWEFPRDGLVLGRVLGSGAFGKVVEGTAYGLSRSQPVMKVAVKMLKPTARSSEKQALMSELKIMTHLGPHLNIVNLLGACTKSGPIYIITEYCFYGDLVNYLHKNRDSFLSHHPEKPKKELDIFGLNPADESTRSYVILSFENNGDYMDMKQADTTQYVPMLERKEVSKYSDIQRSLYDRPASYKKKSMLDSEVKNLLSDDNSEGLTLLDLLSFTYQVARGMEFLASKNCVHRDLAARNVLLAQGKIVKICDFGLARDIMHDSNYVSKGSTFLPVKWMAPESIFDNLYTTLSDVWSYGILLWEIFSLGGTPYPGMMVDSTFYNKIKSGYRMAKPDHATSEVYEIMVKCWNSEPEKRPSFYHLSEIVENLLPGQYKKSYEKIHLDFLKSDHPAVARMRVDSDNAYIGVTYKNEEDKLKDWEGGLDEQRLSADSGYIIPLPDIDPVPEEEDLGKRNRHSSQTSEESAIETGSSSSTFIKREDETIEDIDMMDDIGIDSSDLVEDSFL

With `CC1CCN(C(=O)CC#N)CC1c1ncc2cnc3[nH]ccc3n12` (stereo not given) the Ki [1] was > 1.26 µM (inactive), the Ki [2] was > 3.98 µM (inactive) and the Ki [3] was > 3.98 µM (inactive). For the same molecule, the Ki [4] was > 3.16 µM (inactive), the Ki [5] was 0.000794 µM (active) and the Ki [6] was > 3.16 µM (inactive). The Ki [7] was > 3.16 µM (inactive), the Ki [8] was > 6.31 µM (inactive) and the Ki [9] was 2.51 µM (active). The Ki [10] was > 3.16 µM (inactive), the Ki [11] was > 3.98 µM (inactive) and the Ki [12] was 2.51 µM (active). For the same molecule, the Ki [13] was > 5.01 µM (inactive), the Ki (Activin receptor type-1) was > 3.98 µM (inactive) and the Ki [14] was > 2.51 µM (inactive). For the same molecule, the Ki [15] was > 6.31 µM (inactive), the Ki (Aurora kinase A) was > 1.58 µM (inactive) and the Ki [16] was > 6.31 µM (inactive). The Ki [17] was > 5.01 µM (inactive), the Ki [18] was > 3.98 µM (inactive) and the Ki [19] was 0.00316 µM (active). The Ki [20] was > 3.98 µM (inactive), the Ki [21] was 0.316 µM (active) and the Ki [22] was > 6.31 µM (inactive). The Ki [23] was 2.51 µM (active), the Ki [24] was > 2.51 µM (inactive) and the Ki (Activated CDC42 kinase 1) was > 3.16 µM (inactive). For the same molecule, the Ki [25] was > 3.16 µM (inactive), the Ki [26] was > 3.98 µM (inactive) and the Ki [27] was 1.26 µM (active). The Ki [28] was > 3.98 µM (inactive), the Ki [29] was > 3.16 µM (inactive) and the Ki [30] was > 2.51 µM (inactive). For the same molecule, the Ki [31] was > 2.51 µM (inactive), the Ki [32] was 0.316 µM (active) and the Ki [33] was > 2.51 µM (inactive). For the same molecule, the Ki [34] was 0.316 µM (active), the Ki [35] was 0.0251 µM (active) and the Ki [36] was > 6.31 µM (inactive). For the same molecule, the Ki [37] was > 3.16 µM (inactive), the Ki [38] was > 3.98 µM (inactive) and the Ki [39] was > 3.98 µM (inactive). For the same molecule, the Ki [40] was > 3.98 µM (inactive), the Ki [41] was > 1.58 µM (inactive) and the Ki [42] was > 3.98 µM (inactive). For the same molecule, the Ki [43] was 0.501 µM (active), the Ki [44] was > 2.51 µM (inactive) and the Ki [45] was > 5.01 µM (inactive). For the same molecule, the Ki [46] was > 2.51 µM (inactive), the Ki [47] was > 2.51 µM (inactive) and the Ki [48] was > 3.98 µM (inactive). The Ki [49] was > 2 µM (inactive), the Ki [50] was > 3.16 µM (inactive) and the Ki [51] was > 7.94 µM (inactive). For the same molecule, the Ki [52] was 1 µM (active) and the Ki [53] was > 3.98 µM (inactive).
With `COc1ccc(S(=O)(=O)Nc2c(C(=O)O)[nH]c3ccc(OC)cc23)cc1` the AC50 [54] was 2.51 µM (active), the AC50 [55] was 1.46 µM (active) and the AC50 [56] was 5.47 µM (active). For the same molecule, the AC50 [57] was 3.7 µM (active).
